Literature values as cited in US9895393B2, “Topical formulations for increasing the dermal concentration of hyaluronic acid” (SHAMROC, INC., priority 2012, dated 2018).
Peptide text beside a SMILES is read from it. * marks the point of attachment. Palmitoyl = CCCCCCCCCCCCCCCC(=O)*

Columns and labels:
[1] = system: human fibroblasts
[2] = system: lipid peroxidation
[3] = system: skin; conditions: Studies have shown

| Structure (SMILES) | collagen synthesis [1] | anti-oxidant activity [2] | collagen production [3] | melanogenesis (the production of pigment) [3] |
| --- | --- | --- | --- | --- |
| CCCCCCCCCCCCCCCC(=O)N[C@@H](CCCCN)C(=O)N[C@H](C(=O)N[C@@H](CCCCN)C(=O)O)C(C)C.O=C(O)C(F)(F)F.O=C(O)C(F)(F)F [palmitoyl-lysyl-valyl-lysine bistrifluoroacetate] (Palmitoyl-Lys-Val-Lys-OH) | stimulates collagen synthesis |  |  |  |
| CCCCCCCCC(CCCCCC)C(=O)OC[C@H](OC(=O)C(CCCCCC)CCCCCCCC)[C@H]1OC(=O)C(OC(=O)C(CCCCCC)CCCCCCCC)=C1OC(=O)C(CCCCCC)CCCCCCCC (stereo partly shown) [tetrahexyldecyl ascorbate] |  | inhibiting lipid peroxidation | stimulate collagen production | inhibiting melanogenesis |
